Data taken from patent US20070232492A1, “Herbicidal Composition” (Ishihara Sangyo Kaisha, LTD., priority 2004, published 2007).
Where two headings read alike, the source gives them in different places.

How the values were obtained:
[1] = tested on: flatsedge (Cyperus serotinus); assay: Growth inhibition of flatsedge (planted tubers) in paddy soil pots, application under submerged condition, visual rating and Colby expected value; format: in vivo
In short: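 Tubers grown in flooded paddy soil (3.5 cm water); compounds, alone or mixed, diluted in water and applied submerged at about 2.5-4 leaf stage. Growth inhibition rated visually 21-30 days later (0% untreated to 100% kill); expected mixture values by Colby equation.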

[2] = tested on: barnyardgrass (Echinochloa oryzicola vasing); assay: Growth inhibition of barnyardgrass in paddy soil pots, application under submerged condition, visual rating (observed value) and Colby expected value; format: in vivo; conditions: for inhibition at 100 g/ha / inhibition at 200 g/ha / inhibition at 150 g/ha / inhibition at 300 g/ha: Echinochloa oryzicola, soil, 504 h; for inhibition at 100 g/ha: 1 g/a; for inhibition at 100 g/ha / inhibition at 200 g/ha: read-out: Growth inhibition rate (%) Observed; for inhibition at 200 g/ha: 2 g/a; for inhibition at 150 g/ha: read-out: Growth inhibition rate (%) Observed, 1.5 g/a
In short: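 Barnyardgrass (Echinochloa oryzicola vasing) seeds were sown in paddy field soil in 1/10,000 are pots and kept irrigated at a water depth of 3.5 cm. Wettable powders of the active ingredients were diluted with water and applied under submerged conditions at the prescribed amounts. Growth was visually scored from 0% (as untreated) to 100% (complete kill), and expected values were calculated with Colby's formula.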

[3] = 2.0 to 2.5 leaf stage, 21 days after application
[4] = 2.8 to 3.2 leaf stage, 21 days after application, Test Examples 39-43

## CCCOCCN(C(=O)CCl)c1c(CC)cccc1CC [Compound (B3.1), pretilachlor]
[1]; Cyperus serotinus, soil, 720 h, 4 g/a, 2.5 to 3.0 leaf stage, 30 days after application, Test Examples 46-60, read-out: Growth inhibition rate (%) Observed
  inhibition at 400 g/ha: 20%
[2]; [3]
  inhibition at 100 g/ha: 17%
  inhibition at 200 g/ha: 33%
[2]; [4]
  inhibition at 100 g/ha: 0%
  inhibition at 200 g/ha: 0%

## CCS(=O)(=O)Oc1ccc2c(c1)C(C)(C)CO2 [Compound (B8.1), benfuresate]
[1]; Cyperus serotinus, soil, 720 h, read-out: Growth inhibition rate (%) Observed
  inhibition at 600 g/ha: 93%
[2]; [3]
  inhibition at 150 g/ha: 10%
[2]; 3.0 to 3.3 leaf stage, 21 days after application
  inhibition at 150 g/ha: 0%
[2]; read-out: Growth inhibition rate (%) Observed, 3 g/a, 2.0 to 2.5 leaf stage, 21 days after application
  inhibition at 300 g/ha: 33%
[2]; read-out: Growth inhibition rate (%) Observed, 3.0 g/a, 3.0 to 3.3 leaf stage, 21 days after application
  inhibition at 300 g/ha: 0%

## COCC(=O)OC(c1ncccc1S(=O)(=O)NC(=O)Nc1nc(OC)cc(OC)n1)C(C)F (stereo not shown) [Compound A2, flucetosulfuron]
[1]; 0.0275 g/a, 2.8 to 3.2 leaf stage, 29 days after application
  Growth inhibition rate (%) Observed: 0%
[1]; 0.15 g/a, 2.5 to 3.0 leaf stage, 30 days after application, Test Examples 46-60
  Growth inhibition rate (%) Observed: 40%
[1]; 0.2 g/a, 4 leaf stage, 21 days after application
  Growth inhibition rate (%) Observed: 20%
[1]; 0.4 g/a, 4 leaf stage, 21 days after application
  Growth inhibition rate (%) Observed: 50%
[2]; 0.055 g/a, 2.8 to 3.2 leaf stage, 21 days after application
  Growth inhibition rate (%) Observed: 55%
[2]; 0.083 g/a, 2.1 to 3.2 leaf stage, 21 days after application
  Growth inhibition rate (%) Observed: 90%
[2]; 0.083 g/a, 2.1 to 3.2 leaf stage, 22 days after application
  Growth inhibition rate (%) Observed: 90%
[2]; 0.083 g/a, 2.5 to 3.0 leaf stage, 22 days after application
  Growth inhibition rate (%) Observed: 67%
[2]; 0.083 g/a, 2.8 to 3.2 leaf stage, 19 days after application, Test Examples 62-65
  Growth inhibition rate (%) Observed: 55%
[2]; 0.083 g/a, 2.8 to 3.2 leaf stage, 21 days after application
  Growth inhibition rate (%) Observed: 65%
[2]; 0.083 g/a, 2.8 to 3.2 leaf stage, 21 days after application, Test Examples 39-43
  Growth inhibition rate (%) Observed: 55%
[2]; 0.11 g/a, 2.0 to 2.5 leaf stage, 21 days after application
  Growth inhibition rate (%) Observed: 90%
[2]; 0.11 g/a, 2.1 to 3.2 leaf stage, 21 days after application
  Growth inhibition rate (%) Observed: 92%
[2]; 0.11 g/a, 2.1 to 3.2 leaf stage, 22 days after application
  Growth inhibition rate (%) Observed: 92%
[2]; 0.11 g/a, 2.4 to 3.2 leaf stage, 29 days after application, Test Example 45
  Growth inhibition rate (%) Observed: 96%
[2]; 0.11 g/a, 2.5 to 3.0 leaf stage, 22 days after application
  Growth inhibition rate (%) Observed: 83%
[2]; 0.11 g/a, 2.8 to 3.2 leaf stage, 19 days after application, Test Examples 62-65
  Growth inhibition rate (%) Observed: 68%
[2]; 0.11 g/a, 2.8 to 3.2 leaf stage, 21 days after application
  Growth inhibition rate (%) Observed: 75%
[2]; 0.11 g/a, 2.8 to 3.2 leaf stage, 21 days after application, Test Examples 39-43
  Growth inhibition rate (%) Observed: 70%
[2]; 0.165 g/a, 2.0 to 2.5 leaf stage, 21 days after application
  Growth inhibition rate (%) Observed: 90%
[2]; 0.165 g/a, 2.1 to 3.2 leaf stage, 21 days after application
  Growth inhibition rate (%) Observed: 96%
[2]; 0.165 g/a, 2.1 to 3.2 leaf stage, 22 days after application
  Growth inhibition rate (%) Observed: 96%
[2]; 0.165 g/a, 2.5 to 3.0 leaf stage, 22 days after application
  Growth inhibition rate (%) Observed: 89%
[2]; 0.165 g/a, 2.8 to 3.2 leaf stage, 19 days after application, Test Examples 62-65
  Growth inhibition rate (%) Observed: 73%
[2]; 8.3 g/ha, 3 leaf stage, 22 days after application, Test Example 36
  Growth inhibition rate (%) Observed: 67%
[2]; 8.3 g/ha, 3 leaf stage, 22 days after application, Test Example 38
  Growth inhibition rate (%) Observed: 83%
[2]; 11 g/ha, 3 leaf stage, 22 days after application, Test Example 36
  Growth inhibition rate (%) Observed: 83%
[2]; 11 g/ha, 3 leaf stage, 22 days after application, Test Example 38
  Growth inhibition rate (%) Observed: 96%
[2]; 16.5 g/ha, 3 leaf stage, 22 days after application, Test Example 36
  Growth inhibition rate (%) Observed: 89%
[2]; 16.5 g/ha, 3 leaf stage, 22 days after application, Test Example 38
  Growth inhibition rate (%) Observed: 98%
